Experimental data published in patent publication US10287251B2, “Pyrazole derivative or pharmaceutically acceptable salt thereof” (KISSEI PHARMACEUTICAL CO., LTD., priority 2015, dated 2019).

Molecular target: T1, TRPM8 (Rattus norvegicus, UniProt Q8R455)
T1 construct: from tissue; host or cells: whole animal, female SD rats (in vivo)
Assay: Confirmation test of inhibitory effects on icilin-induced wet-dog shakes
Format: in vivo
Settings: female SD rats, icilin 1 mg/kg i.p. 1 hour after dosing, shakes counted for 5 minutes
Description: Further, TRPM8 inhibitory activity can be evaluated by the efficacy inhibiting the wet-dog shake action which is induced by the administration of Icilin, TRPM8 agonist. Furthermore, an effect on overactive bladder (OAB) can be evaluated by an elongation of micturition interval against overactive bladder induced by acetic acid in accordance with a similar method described in J. Urol., 2001, 166, 1142.
Confirmation Test of Inhibitory Effects on Icilin-induced Wet-dog Shakes
Test compounds were dissolved in dimethylacetamide (wako), and 0.5% methylcellulose solution (wako) was added to make the solution or suspension containing 5% of dimethylacetatnide. At a dose of 0.3 to 10 mg/kg/5mL of test compounds were orally administered to female SD rats. After 1 hour, wet-dog shakes were induced by the intraperitoneal injection of icilin (1 mg/kg) which was dissolved in polyethylene glycol 400 (wako). From 5 minutes after the administration of icilin, wet-dog shakes were counted for 5 minutes. For control example, vehicle (a mixture of dimethylacetamide (wako): 0.5% methylcellulose (wako)=5:95) was administrated similarly, and the number of wet-dog shakes was counted in the same manner. A percent inhibition of wet-dog shakes by test compound was calculated from the following formula: [1-(test compound wet-dog shake count/vehicle wet-dog shake count)]×100.

T1 sequence (Q8R455 whole entry): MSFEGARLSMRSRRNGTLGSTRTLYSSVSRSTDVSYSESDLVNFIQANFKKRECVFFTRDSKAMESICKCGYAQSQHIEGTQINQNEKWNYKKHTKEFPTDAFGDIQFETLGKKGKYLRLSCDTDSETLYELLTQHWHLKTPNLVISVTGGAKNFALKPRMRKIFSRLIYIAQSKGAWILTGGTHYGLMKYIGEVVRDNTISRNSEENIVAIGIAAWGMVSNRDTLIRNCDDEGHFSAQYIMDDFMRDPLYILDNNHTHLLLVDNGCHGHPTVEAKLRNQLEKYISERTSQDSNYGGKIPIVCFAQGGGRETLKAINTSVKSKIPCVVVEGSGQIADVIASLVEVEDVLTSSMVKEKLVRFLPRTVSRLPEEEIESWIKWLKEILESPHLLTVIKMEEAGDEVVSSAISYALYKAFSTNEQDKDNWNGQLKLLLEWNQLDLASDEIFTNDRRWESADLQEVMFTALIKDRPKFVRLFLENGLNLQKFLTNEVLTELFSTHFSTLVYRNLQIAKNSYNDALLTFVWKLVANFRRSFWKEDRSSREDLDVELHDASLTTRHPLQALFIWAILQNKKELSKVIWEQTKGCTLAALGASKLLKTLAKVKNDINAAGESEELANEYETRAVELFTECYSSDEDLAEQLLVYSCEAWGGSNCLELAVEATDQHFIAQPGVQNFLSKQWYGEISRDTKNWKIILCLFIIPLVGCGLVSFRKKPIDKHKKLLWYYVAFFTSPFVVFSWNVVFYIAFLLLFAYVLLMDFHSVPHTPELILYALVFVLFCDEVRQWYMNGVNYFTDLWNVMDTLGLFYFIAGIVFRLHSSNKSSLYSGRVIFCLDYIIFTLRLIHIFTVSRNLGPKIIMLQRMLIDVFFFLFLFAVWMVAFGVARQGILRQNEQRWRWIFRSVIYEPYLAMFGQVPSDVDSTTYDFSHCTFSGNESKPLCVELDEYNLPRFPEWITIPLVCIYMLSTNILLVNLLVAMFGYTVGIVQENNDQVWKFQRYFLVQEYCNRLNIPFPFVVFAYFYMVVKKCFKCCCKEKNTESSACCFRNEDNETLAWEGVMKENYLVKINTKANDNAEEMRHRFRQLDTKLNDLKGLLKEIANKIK

SMILES | % inhibition of Wet-Dog Shake (oral dose 3 mg/kg) | also measured
O=C(N[C@H](Cn1cccn1)[C@H](F)CO)c1cccc(F)c1-c1n[nH]c(-c2ccc(F)cc2)c1F [Example 43-39] | – | % inhibition of Wet-Dog Shake (oral dose 1 mg/kg): 81%
COC(c1ccccn1)[C@H](CO)NC(=O)c1ccccc1-c1n[nH]c(-c2ccc(F)cc2)c1F (stereo partly drawn) [Example 43-17] | 78% | –
CC(C)(O)[C@@H](Cc1ccccn1)NC(=O)c1cccc(F)c1-c1cc(-c2ccc(F)cc2)[nH]n1 [Example 33-1, 3-Fluoro-2-[-5-(4-fluorophenyl)-1H-pyrazol-3-yl]-N-[(2R)-3-hydroxy-3-methyl-1-(pyridin-2-yl)butan-2-yl]benzamide] | 100% | –
COC(c1ccccn1)[C@@H](NC(=O)c1cccc(F)c1-c1cc(-c2ccc(F)cc2)[nH]n1)[C@H](O)CO (stereo partly drawn) [Example 54-19] | 68% | –
O=C(N[C@H](Cc1ncccn1)C(F)(F)CO)c1cccc(F)c1-c1cc(-c2ccc(F)cc2)[nH]n1 [Example 50-4] | 100% | –
O=C(N[C@@H](CCO)Cc1ccccn1)c1ccccc1-c1n[nH]c(-c2ccc(F)cc2)c1F [Example 1-173] | – | % inhibition of Wet-Dog Shake (oral dose 1 mg/kg): 85%
O=C(N[C@H](Cn1cccn1)[C@H](O)CO)c1cccc(F)c1-c1cc(-c2ccc(F)cc2)[nH]n1 [Example 1-226] | 53% | –
C[C@@](O)(CO)[C@@H](Cc1ccccn1)NC(=O)c1cccc(Cl)c1-c1cc(-c2ccc(F)cc2)[nH]n1 [Example 1-225] | 37% | –
CC(C)(O)[C@@H](Cc1ccccn1)NC(=O)c1cccc(Cl)c1-c1cc(-c2ccc(F)cc2)[nH]n1 [Example 33-3] | 32% | –
O=C(N[C@H](Cc1ncccn1)[C@@H](O)CO)c1cccc(F)c1-c1cc(-c2ccc(F)cc2)[nH]n1 [Example 31-1, N-[(2R,3R)-3,4-Dihydroxy-1-(pyrimidin-2-yl)butan-2-yl]-3-fluoro-2-[5-(4-fluorophenyl)-1H-pyrazol-3-yl]benzamide] | 36% | –
O=C(N[C@@H](CO)Cc1ccccc1)c1ccccc1-c1cc(-c2ccc(F)c(F)c2)[nH]n1 [Example 1-62] | 55% | –
O=C(N[C@@H](CO)Cc1ccccn1)c1ccccc1-c1cc(-c2ccccc2)[nH]n1 [Example 1-27] | – | % inhibition of Wet-Dog Shake (oral dose 10 mg/kg): 68%
CC(O)[C@@H](Cc1ccccn1)NC(=O)c1cccc(F)c1-c1cc(-c2ccc(F)cc2)[nH]n1 (stereo partly drawn) [Example 1-113] | 98% | –
COC(c1ccccn1)[C@H](CO)NC(=O)c1cccc(Cl)c1-c1cc(-c2ccc(F)cc2)[nH]n1 (stereo partly drawn) [Example 43-12] | 92% | –
CC(c1ccccn1)[C@H](CO)NC(=O)c1cccc(F)c1-c1cc(-c2ccc(F)cc2)[nH]n1 (stereo partly drawn) [Example 1-200] | 91% | –
COC(c1ccccn1)[C@H](CCO)NC(=O)c1cccc(F)c1-c1cc(-c2ccc(F)cc2)[nH]n1 (stereo partly drawn) [Example 43-9] | 89% | –
CO[C@H](CO)[C@@H](Cc1ccccn1)NC(=O)c1cccc(F)c1-c1n[nH]c(-c2ccc(F)cc2)c1Cl [Example 43-36] | 31% | –
C[C@](O)(CO)[C@@H](Cc1ccccn1)NC(=O)c1cccc(F)c1-c1cc(-c2ccc(F)cc2)[nH]n1 [Example 1-217] | 75% | –
O=C(N[C@H](Cc1ccccn1)[C@H](F)CO)c1cccc(F)c1-c1cc(-c2ccc(Cl)cc2)[nH]n1 [Example 50-7] | 99% | –
COC(c1ccccn1)[C@H](CO)NC(=O)c1cccc(F)c1-c1cc(-c2ccc(F)cc2)[nH]n1 (stereo partly drawn) [Example 43-11] | 88% | –
O=C(N[C@@H](CO)Cc1ncccc1C(F)(F)F)c1cccc(F)c1-c1cc(-c2ccc(F)cc2)[nH]n1 [Example 1-197] | 44% | –
O=C(N[C@H](Cc1ncccn1)[C@@H](O)CF)c1cccc(F)c1-c1cc(-c2ccc(F)cc2)[nH]n1 [Example 50-2] | 89% | –
C[C@@](Cc1ccccc1)(NC(=O)c1ccccc1-c1cc(-c2ccc(F)cc2)[nH]n1)C(N)=O [Example 24-3] | 46% | –
CC(c1ccccn1)[C@@H](NC(=O)c1cccc(F)c1-c1n[nH]c(-c2ccc(F)cc2)c1F)[C@H](O)CO (stereo partly drawn) [Example 54-17] | 42% | –
O=C(N[C@H](Cn1cccn1)[C@H](F)CO)c1cccc(F)c1-c1cc(-c2ccc(Cl)cc2)[nH]n1 [Example 43-44] | 69% | –
O=C(N[C@H](Cc1ccccn1)[C@H](O)CO)c1ccccc1-c1cc(-c2ccc(F)cc2)[nH]n1 [Example 1-185] | 56% | –

SMILES | % inhibition of Wet-Dog Shake (oral dose 3 mg/kg) | also measured
CC(c1ccccn1)[C@@H](NC(=O)c1cccc(F)c1-c1cc(-c2ccc(F)cc2)[nH]n1)[C@H](O)CO (stereo partly drawn) [Example 54-14] | 77% | –
CO[C@H](CO)[C@@H](Cc1ccccn1)NC(=O)c1ccccc1-c1cc(-c2ccc(F)cc2)[nH]n1 [Example 43-13] | – | % inhibition of Wet-Dog Shake (oral dose 0.3 mg/kg): 90%
C[C@@](O)(CO)[C@@H](Cc1ccccn1)NC(=O)c1ccccc1-c1cc(-c2ccc(F)cc2)[nH]n1 [Example 1-228] | 97% | –
NC(=O)[C@@H](Cc1ccccn1)NC(=O)c1cccc(F)c1-c1cc(-c2ccc(F)cc2)[nH]n1 [Example 37-1, (2R)-2-{3-Fluoro-2-[-5-(4-fluorophenyl)-1H-pyrazol-3-yl]benzoylamino}-3-(pyridin-2-yl)propanamide] | 38% | –
O=C(N[C@@H](CO)C(O)c1ccccn1)c1cccc(F)c1-c1cc(-c2ccc(F)cc2)[nH]n1 (single isomer, unassigned) [Example 54-1] | 70% | –
NC(=O)[C@@H](Cc1ccccn1)NC(=O)c1ccccc1-c1cc(-c2ccccc2)[nH]n1 [Example 1-15] | – | % inhibition of Wet-Dog Shake (oral dose 10 mg/kg): 54%
O=C(N[C@@H](CO)Cc1ccccn1)c1c(F)cccc1-c1cc(-c2ccc(F)cc2)[nH]n1 [Example 1-94] | – | % inhibition of Wet-Dog Shake (oral dose 10 mg/kg): 100%
O=C(N[C@@H](CO)Cc1ccccn1)c1cccc(F)c1-c1n[nH]c(-c2ccc(F)cc2)c1F [Example 1-105] | 90% | –
O=C(N[C@@H](CO)C(F)(F)c1ccccn1)c1cccc(F)c1-c1cc(-c2ccc(F)cc2)[nH]n1 [Example 1-230] | – | % inhibition of Wet-Dog Shake (oral dose 1 mg/kg): 59%
CO[C@H](CO)[C@@H](Cn1nccn1)NC(=O)c1cccc(F)c1-c1n[nH]c(-c2ccc(F)cc2)c1F [Example 27-30] | – | % inhibition of Wet-Dog Shake (oral dose 0.3 mg/kg): 62%
O=C(N[C@@H](CO)Cc1ccccn1)c1cccc(F)c1-c1cc(-c2ccc(Cl)cc2)[nH]n1 [Example 1-137] | 84% | –
C[C@@](Cc1ccccc1)(NC(=O)c1cccc(F)c1-c1cc(-c2ccc(F)cc2)[nH]n1)C(N)=O [Example 24-1, (2S)-2-{3-Fluoro-2-[5-(4-fluorophenyl)-1H-pyrazol-3-yl]benzoylamino}-2-methyl-3-phenylpropanamide] | 71% | –
C[C@@](CO)(Cc1ccccn1)NC(=O)c1cccc(F)c1-c1cc(-c2ccc(F)cc2)[nH]n1 [Example 36-2] | 72% | –
CCO[C@H](CO)[C@@H](Cc1ccccn1)NC(=O)c1cccc(F)c1-c1cc(-c2ccc(F)cc2)[nH]n1 [Example 43-15] | – | % inhibition of Wet-Dog Shake (oral dose 1 mg/kg): 73%
C[C@@](O)(CO)[C@@H](Cc1ccccn1)NC(=O)c1cccc(F)c1-c1cc(-c2ccc(F)cc2)[nH]n1 [Example 1-224] | 82% | –
O=C(N[C@@H](CCO)Cc1ccccn1)c1ccccc1-c1cc(-c2ccc(F)cc2)[nH]n1 [Example 1-208] | 100% | –
CC(C)(O)[C@@H](Cc1ccccn1)NC(=O)c1cccc(F)c1-c1n[nH]c(-c2ccc(F)cc2)c1F [Example 33-2] | – | % inhibition of Wet-Dog Shake (oral dose 1 mg/kg): 88%
C[C@@](Cc1ccccn1)(NC(=O)c1cccc(F)c1-c1cc(-c2ccc(F)cc2)[nH]n1)C(N)=O [Example 24-7] | 56% | –
CO[C@H](CO)[C@@H](Cn1nccn1)NC(=O)c1cccc(F)c1-c1cc(-c2ccc(F)cc2)[nH]n1 [Example 27-22] | – | % inhibition of Wet-Dog Shake (oral dose 1 mg/kg): 100%
O=C(N[C@@H](CO)Cc1ncccn1)c1cccc(F)c1-c1cc(-c2ccc(F)cc2)[nH]n1 [Example 1-174] | 60% | –
O=C(N[C@@H](CO)C(O)c1ccccn1)c1ccccc1-c1n[nH]c(-c2ccc(F)cc2)c1F (stereo partly drawn) [Example 1-205] | 70% | –
CO[C@H](CO)[C@@H](Cc1ncccn1)NC(=O)c1cccc(F)c1-c1n[nH]c(-c2ccc(F)cc2)c1F [Example 27-18] | – | % inhibition of Wet-Dog Shake (oral dose 1 mg/kg): 86%
O=C(N[C@@H](CO)Cc1nccs1)c1cccc(F)c1-c1cc(-c2ccc(F)cc2)[nH]n1 [Example 1-177] | 59% | –
O=C(N[C@@H](CO)Cc1ccccn1)c1ccccc1-c1cc(-c2ccc(F)c(F)c2)[nH]n1 [Example 1-29] | 66% | –
O=C(N[C@@H](CO)Cc1ncccc1F)c1cccc(F)c1-c1cc(-c2ccc(F)cc2)[nH]n1 [Example 1-167] | – | % inhibition of Wet-Dog Shake (oral dose 1 mg/kg): 65%
